From patent US6632455B2, “Molecular dispersion composition with enhanced bioavailability” (Schering Corporation, priority 1997, dated 2003)

What was measured:
[1] = Bioavailability assay: single oral dose, plasma analysed by HPLC-UV, AUC compared with amorphous suspension control; format: in vivo, male cynomolgus monkeys; details: for bioavailability (in words): observed while developing a solid dosage form with conventional excipients
Description: The formulation to be tested was administered orally to male cynomolgus monkeys in a single dose (PO, single). The number of monkeys for each test is indicated by the letter “N” followed by an equal sign and a number. Thus, “(N=6)” means the formulation was administered to six monkeys. The total amount of the compound of Formula I administered was 100 or 200 mg given as one capsule or tablet containing 100 or 200 mg each. The administered dose (tablet, capsule or control suspension) was slowly washed down with 10 mL of water. Blood samples were taken at 15, 30 minutes, 1 hour, 2 hours, 4 hours, 6 hours, 8 hours, 12 hours, 24 hours, and 48 hours in heparinized syringes. Plasma for analysis was obtained by centrifugation at 4° C. Plasma samples (one per time point) were split and stored at −20° C. until assayed as described below.
The monkeys to be tested were fed two biscuits in the morning on the day of drug administration.
Monkeys that were fasted were not given any food overnight before drug administration and were fed normally after the 4-hour time point after drug administration.
Samples of monkey plasma were collected at selected time intervals. The plasma was analyzed by a high pressure liquid chromatograph (HPLC) procedure with ultraviolet detection. AUC (area under the plasma concentration-time curve, […]) values were calculated using standard procedures to determine the relative bioavailability of the compound in the tested formulations. The larger the AUC value, the greater the bioavailability.
A suspension of the compound of Formula I was used as a control. The control was made by suspending sufficient compound of Formula I in methyl cellulose solution to provide a dose of 30 mg/kg of body weight of monkey. The 0.4% methyl cellulose solution was made by adding 4 grams of methyl cellulose to one liter of distilled water and heating at about 80° C. with stirring for about 1½ hours.
The results of the bioavailability assay are given in terms of percent-relative bioavailability (AUC ratio) compared to amorphous suspension of Compound I in 0.4 methyl cellulose solution.

[2] = target: farnesyl protein transferase (Homo sapiens, UniProt P49356); details: cited from earlier work
abnormal growth of cells = details: cited from earlier work
[3] = fed monkeys, suspension of crystalline form vs suspension of amorphous form
[4] = suspension of crystalline form vs suspension of amorphous form, feeding state not printed in the sentence (fasted implied by b145)

- relative bioavailability, % of the AUC of the amorphous suspension [1, 3]: 3.6%
- relative bioavailability, % of the C max of the amorphous suspension [1, 3]: 5.2%
- bioavailability (in words) ([1]; listed as compound of Formula I): extremely poor
- bioavailability (in words) ([1]; listed as crystalline Compound I): very poor
- relative bioavailability, % of the AUC of the amorphous suspension [1, 4]: 1.3%
- relative bioavailability, % of the Cmax of the amorphous suspension [1, 4]: 2.7%
SMILES: NC(=O)N1CCC(CC(=O)N2CCC(C3c4ncc(Br)cc4CCc4cc(Cl)cc(Br)c43)CC2)CC1 (single isomer, unassigned; (+)) [Compound I, (+)-4-[4-(8-chloro-3,10-dibromo-6,11-dihydro-5H-benzo [5,6cyclohepta[1,2-b]pyridin-11-yl)-1-piperidinyl]-2-oxoethyl]-1-piperidinecarboxamide]
- activity for inhibiting farnesyl protein transferase (in words) [2]: potent activity
- activity for inhibiting the abnormal growth of cells (in words) (abnormal growth of cells): potent activity
